Key:
[1] = tested on: SK-OV-3 ovarian cancer cell (HER2+); assay: In vitro anti-proliferative study (NBB staining, 6 days); type: cell-based, human; conditions: SK-OV-3 (HER2+), 6 days incubation, mean±SD
Description: (§1) Briefly, Different cell lines (1×10^3 cells/well) are seeded in a microtiter plate (96 well) and incubated overnight before the treatment. […] After the media is removed, the cells are fixed with formaldehyde (3%; 50 μL) in PBS and stained with NBB reagent (0.05%, 0.1 M sodium acetate, 9% acetic acid; 50 μL) for overnight. The stained cells in each well are washed thrice gently with deionized water and solubilized in sodium hydroxide solution (50 mM; 100 μL). The cell viability is determined by measuring the absorbance of 620 nm in each well by microplate reader. The experiments are repeated in triplicate. The IC50 values are presented as the mean±standard deviation.

[2] = tested on: MDA-MB-231 breast cancer cell (HER2−); assay: as above; type: cell-based; conditions: MDA-MB-231 (HER2−), 6 days incubation, mean±SD
Description: as §1

[3] = tested on: SK-BR-3 breast cancer cell (HER2+); assay: as above; type: cell-based; conditions: SK-BR-3 (HER2+), 6 days incubation, mean±SD
Description: as §1

[4] = tested on: MCF-10A breast epithelial cell (HER2−); assay: as above; type: cell-based; conditions: MCF-10A (HER2−), 6 days incubation, mean±SD
Description: as §1

[5] = tested on: HER2-positive SK-OV-3 human ovarian cancer xenograft; assay: Antitumor activity in SK-OV-3 xenograft model; type: in vivo, Female BALB/cAnN-nu (nude) mice; conditions: 50 mg/kg intravenous, four doses (day 0, 4, 8, 12), compared to vehicle control
Description: Female BALB/cAnN-nu (nude) mice (5-8 weeks old) are housed in the Laboratory Animal Unit, The University of Hong Kong. The mice are freely access to food and water. SKOV-3 ovarian cancer cells (1×10^7) in PBS (100 μL) are injected into the right flanks of each mouse subcutaneously. […] The mice are treated with intravenous administration of a total of four doses on day 0, 4, 8 and 12. The tumor size and body weight are monitored during the treatment. After 28 days, the mice are sacrificed and the tumor weight is measured.

Compound: COc1ccc(CCc2cc(OC)c(OC)c(OC)c2)cc1O [Erianin, erianin]
- IC50 [1]: 21.4 ± 0.3 nM
- IC50 [2]: 21.6 ± 0.2 nM
- IC50 [3]: 24.1 ± 0.1 nM
- IC50 [4]: 25.7 ± 0.2 nM
- tumor growth suppression [5]: no effect

— patent US20250152723A1, “ANTIBODY-DRUG CONJUGATES INVOLVING ERIANIN AND THE FABRICATION METHODS AND APPLICATIONS THEREOF” (Laboratory for Synthetic Chemistry and Chemical Biology …, priority 2023, published 2025)
